Measured values taken from patent US10646575B2, “Heterocyclic degronimers for target protein degradation” (C4 Therapeutics, Inc., priority 2016, dated 2020).

Molecular target: CRBN-DDB1 (Homo sapiens (Human), UniProt Q96SW2)
Assay: CRBN-DDB1 fluorescence polarization (FP) binding assay
Settings: displacement of (−)-Thalidomide-Alexa Fluor or Pomalidomide-fluorescein probe; 400 nM CRBN-DDB1, 5 nM probe, 60 min, room temperature
Description: Measuring compound ligand binding to CRBN-DDB1 was carried out using an established sensitive and quantitative in vitro fluorescence polarization (FP) based binding assay. […] Compounds were dispensed from serially diluted DMSO stock into black 384-well compatible fluorescence polarization plates using an Echo acoustic dispenser. Compound binding to CRBN-DDB1 was measured by displacement of either a (−)-Thalidomide-Alexa Fluor® or Pomalidomide-fluorescein conjugated probe dye. […] Matching control wells excluding CRBN-DDB1 were used to correct for background fluorescence. Plates were read on an Envision plate reader with appropriate FP filter sets. The corrected S (perpendicular) and P (parallel) values were used to calculate fluorescence polarization (FP) with the following equation: FP=1000*(S−G*P)/(S+G*P).

Chain of CRBN-DDB1 (Q96SW2 whole entry): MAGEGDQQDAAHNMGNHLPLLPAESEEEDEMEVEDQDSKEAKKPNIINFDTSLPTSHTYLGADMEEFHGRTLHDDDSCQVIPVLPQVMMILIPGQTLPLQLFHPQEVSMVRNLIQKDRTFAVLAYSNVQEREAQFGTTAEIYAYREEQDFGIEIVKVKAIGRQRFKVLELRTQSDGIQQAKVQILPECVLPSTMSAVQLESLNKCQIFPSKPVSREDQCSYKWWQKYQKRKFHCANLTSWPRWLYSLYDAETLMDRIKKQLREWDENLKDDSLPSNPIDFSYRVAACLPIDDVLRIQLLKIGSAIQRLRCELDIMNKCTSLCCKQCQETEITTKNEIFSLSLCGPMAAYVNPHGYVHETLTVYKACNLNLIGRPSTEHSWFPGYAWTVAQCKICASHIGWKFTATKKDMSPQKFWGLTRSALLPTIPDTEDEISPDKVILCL
Chain of CRBN-DDB1 (Q16531 whole entry partner): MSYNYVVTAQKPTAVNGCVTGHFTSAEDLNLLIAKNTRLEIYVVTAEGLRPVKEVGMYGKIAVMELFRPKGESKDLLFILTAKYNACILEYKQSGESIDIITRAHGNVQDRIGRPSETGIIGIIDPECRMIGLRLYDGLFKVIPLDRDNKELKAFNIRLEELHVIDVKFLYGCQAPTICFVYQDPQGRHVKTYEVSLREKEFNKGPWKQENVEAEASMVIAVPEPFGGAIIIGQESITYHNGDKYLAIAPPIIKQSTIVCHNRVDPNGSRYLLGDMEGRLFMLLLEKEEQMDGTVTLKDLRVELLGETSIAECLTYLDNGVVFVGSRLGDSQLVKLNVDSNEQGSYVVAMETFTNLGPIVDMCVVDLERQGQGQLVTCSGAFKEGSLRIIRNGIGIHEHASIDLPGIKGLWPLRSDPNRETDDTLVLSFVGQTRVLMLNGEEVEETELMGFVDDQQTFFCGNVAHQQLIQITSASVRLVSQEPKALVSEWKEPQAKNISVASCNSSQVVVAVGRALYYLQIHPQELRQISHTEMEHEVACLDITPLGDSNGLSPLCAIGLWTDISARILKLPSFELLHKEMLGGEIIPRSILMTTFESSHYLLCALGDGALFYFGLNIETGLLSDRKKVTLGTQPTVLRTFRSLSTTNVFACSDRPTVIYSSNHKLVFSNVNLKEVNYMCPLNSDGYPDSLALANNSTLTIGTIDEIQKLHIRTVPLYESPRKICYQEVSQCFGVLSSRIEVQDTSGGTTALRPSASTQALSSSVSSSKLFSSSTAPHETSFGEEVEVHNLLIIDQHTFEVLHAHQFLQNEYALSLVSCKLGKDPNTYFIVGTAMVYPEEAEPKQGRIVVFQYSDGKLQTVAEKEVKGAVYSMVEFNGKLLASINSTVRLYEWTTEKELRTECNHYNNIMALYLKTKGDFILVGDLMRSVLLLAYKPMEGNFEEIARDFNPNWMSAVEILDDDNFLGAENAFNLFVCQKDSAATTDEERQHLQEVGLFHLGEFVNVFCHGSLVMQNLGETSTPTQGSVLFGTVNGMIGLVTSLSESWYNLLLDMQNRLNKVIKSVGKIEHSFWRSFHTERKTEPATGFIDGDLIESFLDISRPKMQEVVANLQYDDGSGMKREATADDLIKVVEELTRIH

Kd: 1 to 1000 µM
Structure (SMILES): O=C1NC(=O)C2(CC2)CC1N1C(=O)c2ccccc2C1=O (stereo not shown) [Compound 3, 2-(4,6-dioxo-5-azaspiro[2.5]octan-7-yl)isoindoline-1,3-dione]
